{
  "source": "the NIST ThermoML archive (doi:10.1021/acs.jced.9b00474)",
  "key": {"[1]": {"conditions": "Crystal 2; visual observation"}, "[2]": {"assay": "Molar enthalpy of transition or fusion", "conditions": "Crystal 2; DSC"}, "[3]": {"assay": "xn = mol fraction of the nth substance listed", "conditions": "100 kPa, Liquid, x2 = 0.334; for mass density: Vibrating tube method; for viscosity: Cone and plate viscometry"}},
  "note": "± gives the expanded uncertainty stated by the source.",
  "data": [
    {"smiles": "C[N+](C)(C)CCO.[Cl-]", "note": "[choline chloride]", "values": [
      {"measurement": "Triple point temperature", "setting": "[1]", "value": "351.62 ± 3", "unit": "K"},
      {"measurement": "Molar enthalpy of transition or fusion", "setting": "[2]", "value": "7.32 ± 0.3", "unit": "kJ/mol"}
    ]},
    {"smiles": "NC(N)=O", "note": "[urea] + C[N+](C)(C)CCO.[Cl-]", "values": [
      {"measurement": "mass density", "setting": "[3]; 293.15 K", "value": "1203 ± 1", "unit": "kg/m3"},
      {"measurement": "viscosity", "setting": "[3]; 293.25 K", "value": "2110 ± 210", "unit": "mPa·s"},
      {"measurement": "viscosity", "setting": "[3]; 299.45 K", "value": "1286 ± 120", "unit": "mPa·s"},
      {"measurement": "mass density", "setting": "[3]; 303.15 K", "value": "1197 ± 1", "unit": "kg/m3"},
      {"measurement": "viscosity", "setting": "[3]; 305.85 K", "value": "725 ± 64", "unit": "mPa·s"},
      {"measurement": "viscosity", "setting": "[3]; 312.15 K", "value": "432 ± 36", "unit": "mPa·s"},
      {"measurement": "mass density", "setting": "[3]; 313.15 K", "value": "1192 ± 1", "unit": "kg/m3"},
      {"measurement": "viscosity", "setting": "[3]; 318.35 K", "value": "265 ± 21", "unit": "mPa·s"},
      {"measurement": "mass density", "setting": "[3]; 323.15 K", "value": "1186 ± 1", "unit": "kg/m3"},
      {"measurement": "viscosity", "setting": "[3]; 324.55 K", "value": "170 ± 13", "unit": "mPa·s"},
      {"measurement": "viscosity", "setting": "[3]; 330.95 K", "value": "116 ± 8", "unit": "mPa·s"},
      {"measurement": "mass density", "setting": "[3]; 333.15 K", "value": "1180 ± 1", "unit": "kg/m3"},
      {"measurement": "viscosity", "setting": "[3]; 337.15 K", "value": "83 ± 6", "unit": "mPa·s"},
      {"measurement": "mass density", "setting": "[3]; 343.15 K", "value": "1175 ± 1", "unit": "kg/m3"},
      {"measurement": "viscosity", "setting": "[3]; 343.35 K", "value": "61 ± 4", "unit": "mPa·s"},
      {"measurement": "viscosity", "setting": "[3]; 349.55 K", "value": "46 ± 3", "unit": "mPa·s"},
      {"measurement": "mass density", "setting": "[3]; 353.15 K", "value": "1170 ± 1", "unit": "kg/m3"},
      {"measurement": "viscosity", "setting": "[3]; 355.85 K", "value": "36 ± 3", "unit": "mPa·s"},
      {"measurement": "viscosity", "setting": "[3]; 362.05 K", "value": "27 ± 2", "unit": "mPa·s"},
      {"measurement": "mass density", "setting": "[3]; 363.15 K", "value": "1164 ± 1", "unit": "kg/m3"},
      {"measurement": "viscosity", "setting": "[3]; 368.25 K", "value": "21 ± 2", "unit": "mPa·s"}
    ]}
  ]
}
